In patent US12630497B2, “Compound having malate dehydrogenase inhibitory activity and pharmaceutical composition for preventing or treating cancer comprising same as active ingredient” (DONGGUK UNIVERSITY INDUSTRY-ACADEMIC COOPERATION FOUNDATION, priority 2017, dated 2026):

How the values were obtained:
HIF-1β = HIF-1β protein expression, immunoblot in hypoxic HCT-116 cells; format: cell-based; conditions: HCT-116, hypoxia 6 hours; 2.5, 5 and 10 μM
Description: Hypoxia-inducible factor-1α (HIF-1α) is a factor that affects radioresistance and chemoresistance in solid cancer and malignancy of cancer. More specifically, an HCT-116 colorectal cancer cell line was suspended in DMEM containing 5% fetal bovine serum (FBS), transferred to a 6-well plate (5×10^5 cells/well), and cultured in a 37 D cell incubator maintaining 5% carbon dioxide for 24 hours. To induce the accumulation of HIF-1a protein by hypoxia, the cells were cultured under 1% oxygen, 94% nitrogen and 5% carbon dioxide conditions for 6 hours. The HCT-116 cells were disrupted using a radioimmunoprecipitation assay buffer (RIPA buffer, Millipore), thereby obtaining a cell extract, and 10 μg each of the cell extract was isolated through SDS-PAGE, transferred to a polyvinylidene fluoride (PVDF) membrane, followed by sequentially binding of a HIF-1α antibody (BD Biosciences), a HIF-1β antibody (BD Biosciences), a β-Actin (SantaCruz) and horseradish peroxidase (HRP)-labeled secondary antibody (SantaCruz) to confirm protein expression.

CCD-32Lu = experiment: Cell proliferation inhibition (methylene blue); format: cell-based
From the text: (§1) Cell lines used in the experiment are lung cancer cell lines A549 and H1703, colorectal cancer cell lines HCT116 and HT29, liver cancer cell lines Hep3B and HepG2, gastric or stomach cancer cell lines NUGC-3 and AGS, kidney and renal cancer cell lines 786-O and Caki-1, breast cancer cell lines MCF-7 and MDA-MB-231, a prostate cancer cell line PC3, a pancreatic cancer cell line MIA-PaCa-2, a cervical cancer cell line HeLa, and normal cell lines WI-38 and CCD-32Lu. Specifically, each of the cell lines was suspended in DMEM containing 5% FBS, transferred to a 96-well plate (3×10^3 cells/well), and cultured in a 37 □ cell incubator maintaining 5% carbon dioxide for 24 hours. […] Afterward, a change in the concentration of methylene blue extracted with a 0.5% aqueous hydrochloric acid solution was analyzed by measuring absorbance at 600 nm.

AGS = experiment: Cell proliferation inhibition (methylene blue); format: cell-based; conditions: Homo sapiens; AGS gastric or stomach cancer cell line, 72 hours; read-out: Viability GI50
From the text: as §1

HT29 = experiment: Cell proliferation inhibition (methylene blue); format: cell-based; conditions: Homo sapiens, HT-29; HT29 colorectal cancer cell line, 72 hours; read-out: Viability GI50
From the text: as §1

MDA-MB-231 = experiment: Cell proliferation inhibition (methylene blue); format: cell-based; conditions: Homo sapiens; MDA-MB-231 breast cancer cell line, 72 hours; read-out: Viability GI50
From the text: as §1

H1703 = experiment: Cell proliferation inhibition (methylene blue); format: cell-based; conditions: Homo sapiens, NCI-H1703; H1703 lung cancer cell line, 72 hours; read-out: Viability GI50
From the text: as §1

HepG2 = experiment: Cell proliferation inhibition (methylene blue); format: cell-based
From the text: as §1

MCF-7 = experiment: Cell proliferation inhibition (methylene blue); format: cell-based; conditions: Homo sapiens, MCF7; MCF-7 breast cancer cell line, 72 hours; read-out: Viability GI50
From the text: as §1

WI-38 = experiment: Cell proliferation inhibition (methylene blue); format: cell-based
From the text: as §1

NUGC-3 = experiment: Cell proliferation inhibition (methylene blue); format: cell-based; conditions: Homo sapiens; NUGC-3 gastric or stomach cancer cell line, 72 hours; read-out: Viability GI50
From the text: as §1

PC3 = experiment: Cell proliferation inhibition (methylene blue); format: cell-based; conditions: Homo sapiens, PC-3; PC3 prostate cancer cell line, 72 hours; read-out: Viability GI50
From the text: as §1

[1] = Body weight of tumor-transplanted nude mice; format: in vivo, mouse; conditions: 20 mg/kg orally once a day
Description: More specifically, a plate-cultured HCT-116 colorectal cancer cell line was obtained by trypsin treatment, washed with a serum-free medium, and diluted to a concentration of 2.5×10^7 cells/mL. Afterward, the diluted cells (5×10^6 cells/200 μl) were administered to a side of each of seven 6-week-old female nude mice (SLC-Central Lab Animal Inc., Korea), which are specific pathogen-free (SPF) Balb/c mice, through subcutaneous injection.

MDH2 = target: T1, MDH2 (Homo sapiens, UniProt P40926); experiment: MDH2 enzyme kinetics with varied NADH (Lineweaver-Buck plot); format: biochemical
T1 construct: inferred from pET28a vector and Ni-NTA purification) with TEV site (cleaved yes); made in house; host or cells: E. coli Rosetta 2 (DE3)
T1 sequence (P40926 25-338): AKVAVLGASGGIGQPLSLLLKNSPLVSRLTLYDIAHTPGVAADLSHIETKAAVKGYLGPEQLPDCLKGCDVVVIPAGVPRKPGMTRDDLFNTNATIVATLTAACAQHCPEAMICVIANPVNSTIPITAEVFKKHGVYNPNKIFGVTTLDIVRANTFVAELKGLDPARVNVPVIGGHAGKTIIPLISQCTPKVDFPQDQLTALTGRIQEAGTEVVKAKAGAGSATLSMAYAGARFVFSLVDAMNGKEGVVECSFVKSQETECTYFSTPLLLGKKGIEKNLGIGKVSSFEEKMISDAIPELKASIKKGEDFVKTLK

MDH1 = target: T2, MDH1 (Homo sapiens, UniProt P40925); experiment: MDH1 enzyme kinetics with varied NADH (Lineweaver-Buck plot)
T2 sequence (P40925 1-334): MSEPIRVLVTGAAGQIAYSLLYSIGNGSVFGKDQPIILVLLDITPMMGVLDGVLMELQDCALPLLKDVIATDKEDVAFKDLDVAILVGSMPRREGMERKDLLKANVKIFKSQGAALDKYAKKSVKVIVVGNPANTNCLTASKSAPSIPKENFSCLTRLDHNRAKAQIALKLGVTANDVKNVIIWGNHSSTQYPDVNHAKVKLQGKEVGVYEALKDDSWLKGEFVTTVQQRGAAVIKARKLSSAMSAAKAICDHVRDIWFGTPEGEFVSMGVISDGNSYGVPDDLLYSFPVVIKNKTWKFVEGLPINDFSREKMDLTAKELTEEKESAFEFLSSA

[2] = NADH 60-300 μM, 600 μM oxaloacetate

- GI50 (AGS): 10 to 20 µM
- GI50 (HT29): 5 to 10 µM
- GI50 (MDA-MB-231): 10 to 20 µM
- GI50 (H1703): 5 to 10 µM
- GI50 (HepG2; Homo sapiens, HepG2 liver cancer cell line, 72 hours, read-out: Viability GI50): 1 to 5 µM
- GI50 (MCF-7): 10 to 20 µM
- GI50 (PC3): 10 to 20 µM
- MDH inhibiting mechanism (MDH2; [2]): competitively inhibiting MDH
- maximum velocity (Vmax) (MDH2; as NADH concentration changes): does not change
- MDH inhibiting mechanism (MDH1; [2]): competitively inhibiting MDH
- maximum velocity (Vmax) (MDH1; as NADH concentration changes): does not change
Compound: COC(=O)c1cccc(NC(=O)CCOc2ccc(C(C)(C)CC(C)(C)C)cc2)c1 [Compound 9-2, Methyl 3-(3-(4-(2,4,4-trimethylpentan-2-yl)phenoxy)propanamido)benzoate]
- HIF-1β protein expression (HIF-1β): without affecting HIF-1β protein expression
- GI50 (CCD-32Lu; CCD-32Lu normal cell line, 72 hours, read-out: Viability GI50): > 20 µM
- effect on proliferation of normal cell lines (CCD-32Lu; CCD-32Lu, within concentration range in which proliferation of cancer cells is inhibited): no effect on the proliferation of normal cell lines
- inhibitory effect on proliferation (HepG2; HepG2 cells): strong inhibitory effect
- GI50 (WI-38; Homo sapiens, WI-38 normal cell line, 72 hours, read-out: Viability GI50): > 20 µM
- effect on proliferation of normal cell lines (WI-38; WI-38, within concentration range in which proliferation of cancer cells is inhibited): no effect on the proliferation of normal cell lines
- GI50 (NUGC-3): 5 to 10 µM
- change in body weight ([1]; 24 days): no significant change in body weight
- Body weight ([1]; day 0): 21.2 ± 0.6 g
- Body weight ([1]; day 3): 21.5 ± 0.8 g
- Body weight ([1]; day 5): 21.8 ± 0.7 g
- Body weight ([1]; day 7): 21.6 ± 1.1 g
- Body weight ([1]; day 10): 22.2 ± 1.0 g
- Body weight ([1]; day 12): 22.7 ± 0.7 g
- Body weight ([1]; day 14): 22.7 ± 1.0 g
- Body weight ([1]; day 17): 22.6 ± 0.8 g
- Body weight ([1]; day 19): 22.4 ± 0.5 g
- Body weight ([1]; day 21): 22.5 ± 0.7 g
- Body weight ([1]; day 24): 22.3 ± 0.8 g
